Tests used:
[1] = tested on: D2R; test: Simulation of receptor occupancy over time from kon and koff; conditions: simulation with a KD concentration of each agonist
Text: We extended these studies with a Tag-lite receptor binding assay using a D2R construct with an amino-terminal SNAP tag and the fluorescently labelled agonist (±)-4′-amino-2-(N-phenethyl-N-propyl)-amino-5-hydroxytetralin (PPHT). […] The association rate of a ligand is often thought to be diffusion limited. […] Using these kinetic parameters, we performed a simulation to estimate the receptor occupancy of a KD concentration of each agonist over time (Fig. 4e).
Kinetic binding parameters of kon (a), koff (b) and t1/2 (c) were determined in a competition kinetic binding assay using a Tag-lite binding assay and the fluorescently labelled agonist PPHT as the tracer ligand (Supplementary Table 6). […] All values are expressed as mean±s.e.m. from three experiments. (e) The values of kon and koff obtained in the competition kinetic assay were used to simulate receptor occupancy over time using equation (9) and the concentration of ligand equivalent to its KD (see Supplementary Table 6).
where Ymax reflects maximum binding of a concentration of ligand and kob is determined by equation (8).

[2] = biological target: SNAP-tagged human dopamine D2L (Homo sapiens, UniProt P14416); test: Tag-lite PPHT-red competition kinetic binding (HTRF); conditions: SNAP-D2LR-CHO membranes; 100 μM Gpp(NH)p; 37 °C
Method: To terbium label the SNAP-CHO-D2L cells, cell culture medium was removed from the T175 cm^2 flasks containing confluent adherent SNAP-CHO-D2L cells. Twelve millilitres of Tag-lite labelling medium containing 100 nM of SNAP-Lumi4-Tb was added to the flask and incubated for 1 h at 37 °C under 5% CO2. Cells were then washed 2 × in 15 ml PBS (GIBCO, Invitrogen, Paisley, UK) to remove the excess of SNAP-Lumi4-Tb and detached using 5 ml of enzyme-free Hank's-based cell dissociation buffer (GIBCO, Invitrogen, Paisley, UK) and collected in a vial containing 5 ml of DMEM/Nutrient F-12 Ham, 2 mM glutamine supplemented 10% FCS. Cells were pelleted by centrifugation (5 min at 1,500 r.p.m.) and the pellets were frozen to −80 °C before preparation of membranes.
All subsequent steps described were conducted at 4 °C, to avoid receptor degradation. Twenty millilitres of wash buffer (10 mM HEPES and 10 mM EDTA pH 7.4) was added to the pellet of terbium-labelled cells (equivalent to 1 × t175 cm^2). […] The supernatant was discarded and the pellet was homogenized and centrifuged as described above in wash buffer. The final pellet was suspended in ice-cold 10 mM HEPES and 0.1 mM EDTA pH 7.4, at a concentration of 5–10 mg m^−1. Protein concentration was determined by the bicinchoninic acid assay using BSA as a standard and aliquots maintained at −80 °C until required. Before their use, the frozen membranes were thawed and the membranes suspended in the assay buffer at a membrane concentration of 0.1 mg m^−1.
GppNHp was included to remove the G protein-coupled population of receptors that can result in two binding sites in membrane preparations, because the Motulsky–Mahan model is only appropriate for ligands competing at a single site. […] Both fluorescent ligands and unlabelled compounds were diluted in the binding assay buffer.
Kinetics acquisitions at intervals of 20 s were recorded using the standard settings of the reader for HTRF measurements. […] Specific binding was determined by subtracting the nonspecific HTRF ratio from the total HTRF ratio.
To accurately determine association rate (kon) and dissociation rate (koff) values, the observed rate of association (kob) was calculated using at least four different concentrations of PPHT-red. The appropriate concentration of PPHT-red was incubated in a 384-well Optiplate with human SNAP-D2LR-CHO cell membranes (2 μg per well) in assay binding buffer at 37 °C (final assay volume, 40 μl). The degree of PPHT-red bound to the receptor was assessed at multiple time points by HTRF detection, to allow construction of association kinetic curves. The resulting data were globally fitted to the association kinetic model (equation (8)) to derive a single best-fit estimate for kon and koff as described under ‘Data analysis'.
On the same 384-well Optiplate plate, the kinetic parameters of unlabelled ligand were assessed using a competition kinetic binding assay. This approach involves the simultaneous addition of both fluorescent ligand and competitor to receptor preparation so that at t=0 all receptors are unoccupied. […] The degree of PPHT-red bound to the receptor was assessed at multiple time points by HTRF detection. Nonspecific binding was determined as the amount of HTRF signal detected in the presence of spiperone (1 μM) and was subtracted from each time point. Each time point was conducted on the same 384-well plate incubated at 37 °C with shaking (100 r.p.m.) after every cycle.
Data were globally fitted using equation (7), to simultaneously calculate kon and koff.

Sequence of SNAP-tagged human dopamine D2L (P14416 whole entry): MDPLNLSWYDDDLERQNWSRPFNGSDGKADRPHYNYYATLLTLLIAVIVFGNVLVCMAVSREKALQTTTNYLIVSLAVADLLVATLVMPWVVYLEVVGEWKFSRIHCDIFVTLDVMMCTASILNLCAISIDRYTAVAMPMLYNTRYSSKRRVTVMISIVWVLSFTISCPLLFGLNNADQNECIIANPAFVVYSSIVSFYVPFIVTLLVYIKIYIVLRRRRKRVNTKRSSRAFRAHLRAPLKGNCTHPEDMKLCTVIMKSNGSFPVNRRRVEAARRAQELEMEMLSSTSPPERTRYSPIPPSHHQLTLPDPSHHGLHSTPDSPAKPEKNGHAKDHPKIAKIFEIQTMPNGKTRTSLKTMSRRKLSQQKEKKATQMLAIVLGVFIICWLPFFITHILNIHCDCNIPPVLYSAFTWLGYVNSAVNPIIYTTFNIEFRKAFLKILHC

NCCc1ccc(O)c(O)c1 [Dopamine, dopamine]
time to maximal receptor occupancy [1]: ≤ 1 min

CN(C)C(=O)N[C@H]1CC[C@H](CCN2CCN(c3cccc(Cl)c3Cl)CC2)CC1 [Cariprazine, cariprazine]
time to maximal receptor occupancy [1]: ~10 min

CCCN(CCc1ccc(N)cc1)C1CCc2c(O)cccc2C1 (racemic) [PPHT, (±)-4′-amino-2-(N-phenethyl-N-propyl)-amino-5-hydroxytetralin]
rate of dissociation of the fluorescent tracer [2]: 0.45 min⁻¹

— publication PMC4770093, “The role of kinetic context in apparent biased agonism at GPCRs” (Nature Communications, 2016)
